Earlier results, collected in patent US20020095197A1, “Application of photochemotherapy for the treatment of cardiac arrhythmias” (priority 2000, published 2002).

System: vascular wall (adventitia, media, intima)
Conditions: photochemotherapy with Photofrin applied; literature report (Gonschior et al. 1997)

porfimer sodium [Photofrin]
inflammatory cells in vessel wall layers following vascular trauma: presence of inflammatory cells in the adventitia (outermost layers), but not in the media or intima
